# Laboratory results as given in US5707984A, “Steroid nitrite/nitrate ester derivatives useful as anti-inflammatory drugs” (G. D. Searle & Co., priority 1995, dated 1998).
# Legend:
# [1] = test system: prostaglandin E2 (PGE2) synthesis in human fetal fibroblasts cells; test: In vitro inhibition of prostaglandin E2 (PGE2) synthesis assay, human fetal fibroblasts treated with IL-1 then arachidonic acid, ELISA; format: cell-based; conditions: IL-1 16 h then arachidonic acid; compound 10 uM added with IL-1; basal 3.5, IL-1, AA alone 40.0
# Description: (§1) Selected compounds were tested in three in vitro and two in vivo assays. The in vitro assays consisted of the following: measuring the effect of the compounds to inhibit the increase of prostaglandins following treatment of human fetal fibroblasts cells with interleukin-1 followed by arachidonic acid, measuring the effect of the compounds on cyclic GMP in the human fetal fibroblasts, and measuring the smooth muscle relaxant activity in rat aortic rings. The in vivo assay consists of measuring the antiinflammatory properties of the compounds in the carageenan treated rat air pouch model and the relaxant activity on acetylcholine-induced bronchoconstriction in guinea-pigs.
# A. In vitro inhibiton of prostaglandin E2 (PGE2) synthesis assay: Human fetal fibroblasts cells were treated with IL-1 for 16 hours and then with 10 mM arachidonic acid (AA). The prostaglandin E2 levels were measured by an ELISA. Compounds were given at the time of addition of IL-1. This assay provides an in vitro assessment of the compound to block the induction of the proinflammatory agent prostaglandin E2 (PGE2): […]
# [2] = test system: cyclic GMP in human fetal fibroblasts; test: In vitro stimulation of cGMP production assay, human fetal fibroblasts with isobutylmethylxanthine, radioimmunoassay (NO reporter cell assay); format: cell-based; conditions: 120 min, isobutylmethylxanthine present; basal 1.8
# Description: as §1
# B. In vitro stimulation of cGMP production assay: Human fetal fibroblasts in the presence of isobutylmethylxanthine, an inhibitor of phosphodiesterase, were treated with compounds for 120 min and the intra-cellular cyclic GMP levels are measured by a radioimmunoassay. The cell line is utilized as a reporter cell assay to monitor the production of NO.
# [3] = test system: rat aortic ring smooth muscle; test: In vitro smooth relaxant activity assay, rat aortic rings precontracted with phenylephrine; format: cell-based; conditions: for EC50: Rattus norvegicus, in the presence of Cys and L-NAME, precontracted with phenylephrine (0.3 μM), read-out: Relaxation, EC50; for smooth muscle relaxant activity (in words): rat aortic rings, Cys and L-NAME, FIGS. 1 and 2
# Description: as §1
# C. In vitro smooth relaxant activity assay: Selected compounds were examined for the ability to relax smooth muscle. The rat aortic ring assay was utilized as a bioassay to measure the relaxant activity. The rings were precontracted with phenylephrine (0.3 μM) and subsequently compounds were added to the tissue bath in the presence of cysteine (Cys) and N^G -L-nitro-arginine methyl ester (L-NAME): […]
# [4] = test system: prostaglandin E2 in pouch fluid (carageenan-induced inflammation); test: In vivo anti inflammatory assay, rat carageenan air pouch
# Description: as §1
# D. In vivo anti inflammatory assay: EXAMPLE 1 was tested for antiinflammatory activity in vivo in the rat carageenan air pouch assay. Rats are injected subcutaneously with a volume of air over several days to form a pouch. […] The inflammation is measured by assaying the pouch fluid for prostaglandin E2 by ELISA. Examples 1 at 3 mg/kg dose blocked the increase in prostaglandin E2 by 60%.
compound,measurement,setting,value
CC(=O)OCC(=O)[C@@]1(O)CC[C@H]2[C@@H]3CCC4=CC(=O)C=C[C@]4(C)[C@H]3[C@@H](ON=O)C[C@@]21C [Example 1],PGE2,[1],9.2 ng
same,cyclic GMP,[2],4.8 fm/cell well
same,EC50,[3],20 nM
same,ability to reduce inflammation in vivo (in words),[4],possess the ability to reduce inflammation in vivo
same,blocked the increase in prostaglandin E2,[4]; 3 mg/kg,60%
CC(=O)OCC(=O)[C@@]1(O)CC[C@H]2[C@@H]3CCC4=CC(=O)C=C[C@]4(C)[C@H]3[C@@H](O[N+](=O)[O-])C[C@@]21C [prednisolone-11-nitrate ester-21-acetate],EC50,[3],25000 nM
CCC(=O)OCC(=O)[C@@]1(OC(=O)CC)[C@@H](C)C[C@H]2[C@@H]3CCC4=CC(=O)C=C[C@]4(C)[C@@]3(Cl)[C@@H](O)C[C@@]21C [beclomethasone dipropionate],EC50,[3],> 100000 nM
same,smooth muscle relaxant activity (in words),[3],did not show any effect
C[C@]12C=CC(=O)C=C1CC[C@@H]1[C@@H]2[C@@H](O)C[C@@]2(C)[C@H]1CC[C@]2(O)C(=O)CO [prednisolone],PGE2,[1],9.9 ng
same,cyclic GMP,[2],1.6 fm/cell well
same,smooth muscle relaxant activity (in words),[3],did not show any effect
C[C@]12C=CC(=O)C=C1CC[C@@H]1[C@@H]2[C@@H](ON=O)C[C@@]2(C)[C@H]1CC[C@]2(O)C(=O)CO [Example 2],EC50,[3],30 nM
CCC(=O)OCC(=O)[C@@]1(OC(=O)CC)[C@@H](C)C[C@H]2[C@@H]3CCC4=CC(=O)C=C[C@]4(C)[C@@]3(Cl)[C@@H](ON=O)C[C@@]21C [Example 11],EC50,[3],40 nM
CCC(=O)OCC(=O)[C@@]1(OC(=O)CC)[C@@H](C)C[C@H]2[C@@H]3CCC4=CC(=O)C=C[C@]4(C)[C@@]3(Cl)[C@@H](O[N+](=O)[O-])C[C@@]21C [beclomethasone dipropionate-11-nitrate ester],EC50,[3],2000 nM
